Experimental data: patent publication US9624170B2, “4-(piperrazin-1-yl)-pyrrolidin-2-one compounds as monoacylglycerol lipase (MAGL) inhibitors” (TAKEDA PHARMACEUTICAL COMPANY LIMITED, priority 2013, dated 2017)

Experiments:
[1] = biological target: T1, human MAGL (His-hMAGL) (Homo sapiens, UniProt Q99685); assay: Measurement of MAGL inhibitory activity by absorbance; assay type: biochemical; details: 10 μM test compound, substrate p-nitrophenyl acetate, absorbance at 405 nm
T1 construct: made in house; host or cells: Escherichia coli BL21(DE3)
T1 sequence (Q99685 1-303): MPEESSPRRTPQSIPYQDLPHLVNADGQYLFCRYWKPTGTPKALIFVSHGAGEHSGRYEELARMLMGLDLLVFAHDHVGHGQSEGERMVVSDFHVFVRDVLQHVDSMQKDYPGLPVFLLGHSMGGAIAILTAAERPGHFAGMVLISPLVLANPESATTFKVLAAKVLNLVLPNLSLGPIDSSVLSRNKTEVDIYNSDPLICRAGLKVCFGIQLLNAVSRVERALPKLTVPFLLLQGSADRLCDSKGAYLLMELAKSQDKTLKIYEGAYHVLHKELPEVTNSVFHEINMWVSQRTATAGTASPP
Source text: (1) Cloning of Human MGLL Encoding MAGL Protein and Construction of Expression Plasmid
Human MGLL cDNA was obtained by PCR using human ORF Clone (DNAForm; Clone ID: 100004585) as a template. For PCR, two kinds of primers: […]
The obtained PCR product was digested with Bam HI and Not I (Takara Bio Inc.), inserted into the Bam HI/Not I site of pET21HH(V) (pET21a (Novagen) inserted with His x6 and TEV Protease recognition sequence) by using Ligation High (Toyobo Co., Ltd.), and introduced into ECOS™ JM109 (Nippon Gene Co., Ltd.), whereby expression plasmid pET21HH(V)/His-hMGLLv2 for Escherichia coli was constructed. (2) Preparation of Recombinant Polyhistidine Tagged Human MAGL Protein
Recombinant His-hMAGL protein was prepared by transforming ECOS™ Competent E. coli BL21(DE3) (Nippon Gene Co., Ltd.) with the pET21HH(V)/His-hMGLLv2 plasmid prepared above. Escherichia coli obtained by transformation was inoculated to 10 mL of LB medium (1% peptone, 0.5% yeast extract, 0.5% sodium chloride, 0.01% ampicillin), and cultured at 30° C. for 16 hr. […] When the turbidity of the culture medium reached about 500 Klett unit, the culture temperature was lowered to 16° C., isopropyl-β-D-thiogalactopyranoside (IPTG) was added to a final concentration of 1 mM, and the mixture was further cultured for 19 hr. After the completion of culture, the culture medium was centrifuged (4° C., 6,000 rpm, 10 min) to give His-hMAGL expression Escherichia coli. Then, His-hMAGL expression Escherichia coli was suspended in 50 mM Tris-HCl (pH 8.0, 100 ml) containing 1% Triton X-100, 20 mM imidazole, 3 mM DTT, 5 U/mL Benzonase (Merck) and 150 mM NaCl, sufficiently cooled, and subjected to sonication at […]=60%, 15 sec/ON, 30 sec/OFF for 3 min using ¾″ solid type crushed horn of BRANSON Digital Sonifier 450 (Central Scientific Commerce, Inc.). Furthermore, the homogenate was centrifuged (4° C., 15,000 rpm, 15 min) and the supernatant was obtained. As the purification apparatus, AKTA explorer 10s (GE Healthcare Japan Corporation) was used at 4° C. To the obtained supernatant was added 5M NaCl to the final salt concentration of 0.3 M, and the mixture was flown through and adsorbed to 5 mL of Ni-NTA Superflow Cartridges (QIAGEN) equilibrated in advance with buffer A (50 mM Tris-HCl (pH 8.0) containing 0.05% TritonX-100, 1 mM DTT, 300 mM NaCl). The column was sufficiently washed with buffer A containing 20 mM imidazole and His-hMAGL was eluted with buffer A containing imidazole at a final concentration of 250 mM. The eluate was further subjected to gel filtration using HiLoad 26/600 Superdex 200 pg (GE Healthcare Japan Corporation) equilibrated with 50 mM Tris-HCl pH 8.0 containing 10% glycerol, 0.05% TritonX-100, 1 mM DTT, 150 mM NaCl. The eluted fraction was concentrated by Amicon Ultra-15 10K (Merck Millipore) to give purified His-hMAGL protein. The protein concentration was measured by BCA Protein Assay Kit (Thermo Fisher Scientific) using BSA as the standard.
(3) Measurement of MAGL Inhibitory Activity
His-hMAGL obtained above was diluted with enzyme reaction buffer (10 mM Tris-HCl, pH 7.5, 1 mM EDTA, 0.1 (w/v) % Triton X-100) to a concentration of 60 ng/mL. […] Thereafter, to each well was added 750 μM p-nitrophenyl acetate (Wako Pure Chemical Industries, Ltd.) by 5 μL, and the absorbance at 405 nm was measured every 2 minutes up to 10 minutes by EnVision (PerkinElmer). The amount of change was obtained by subtracting the absorbance measured immediately after the start of the reaction from the absorbance measured 10 min after the start of the reaction.
MAGL inhibitory rate (%) was calculated according to the following calculation formula. (1−(absorbance change amount of test compound addition group−absorbance change amount of enzyme addition-free group)[…](absorbance change amount of test compound addition-free group−absorbance change amount of enzyme addition-free group))×100

[2] = biological target: T1, human MAGL (His-hMAGL); assay: Measurement of MAGL inhibitory activity by mass spectrometry; assay type: biochemical; details: MAGL inhibitory rate, test compound 10 μM, His-hMAGL, substrate 2-arachidonylglycerol, RapidFire-mass spectrometry
How it was run: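 His-tagged human MAGL was reacted with 150 μM 2-arachidonylglycerol substrate (stock, added by 5 μL) for 10 min at room temperature, then stopped with formic acid. Arachidonic acid product was quantified by RapidFire–triple-quadrupole MS in negative SRM mode, corrected by arachidonic acid-d8, and converted to percent inhibition.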

| SMILES | inhibition at 10 µM [1] [%] | other results |
| --- | --- | --- |
| O=C(c1cscn1)N1CCN(C2CC(=O)N(c3ccc(Oc4ccccc4)cc3)C2)CC1 (stereo not drawn) [Example 6, 1-(4-phenoxyphenyl)-4-(4-(1,3-thiazol-4-ylcarbonyl)piperazin-1-yl)pyrrolidin-2-one] | 93 | – |
| N#Cc1cccnc1N1CCN(C2CC(=O)N(c3ccc(Oc4ccccc4)cc3)C2)CC1 (stereo not drawn) [Example 7, 2-(4-(5-Oxo-1-(4-phenoxyphenyl)pyrrolidin-3-yl)piperazin-1-yl)nicotinonitrile] | 87 | – |
| O=C(c1ccc(Cl)o1)N1CCN(C2CC(=O)N(c3ccc(Oc4ccccc4)cc3)C2)CC1 (stereo not drawn) [Example 8, 4-(4-(5-chloro-2-furoyl)piperazin-1-yl)-1-(4-phenoxyphenyl)pyrrolidin-2-one] | 93 | – |
| O=C(c1nccs1)N1CCN(C2CC(=O)N(c3ccc(Oc4ccc(F)c(F)c4)cc3)C2)CC1 (stereo not drawn) [Example 12, 1-(4-(3,4-difluorophenoxy)phenyl)-4-(4-(1,3-thiazol-2-ylcarbonyl)piperazin-1-yl)pyrrolidin-2-one] | 98 | – |
| COc1cc(Oc2ccccc2)ccc1N1CC(N2CCN(C(=O)c3nccs3)CC2)CC1=O (stereo not drawn) [Example 13, 1-(2-Methoxy-4-phenoxyphenyl)-4-(4-(1,3-thiazol-2-ylcarbonyl)piperazin-1-yl)pyrrolidin-2-one] | 98 | – |
| O=C(c1nccs1)N1CCN(C2CC(=O)N(c3ccc4c(ccn4-c4ccc(F)cc4)c3)C2)CC1 (stereo not drawn) [Example 14, 1-(1-(4-Fluorophenyl)-1H-indol-5-yl)-4-(4-(1,3-thiazol-2-ylcarbonyl)piperazin-1-yl)pyrrolidin-2-one] | 98 | – |
| O=C(c1nccs1)N1CCN(C2CC(=O)N(c3ccc(Oc4ccccc4)cn3)C2)CC1 (stereo not drawn) [Example 18, 1-(5-phenoxypyridin-2-yl)-4-(4-(1,3-thiazol-2-ylcarbonyl)piperazin-1-yl)pyrrolidin-2-one] | 96 | – |
| O=C(c1nccs1)N1CCN(C2CC(=O)N(c3ccc(Oc4ccncc4)cc3)C2)CC1 (stereo not drawn) [Example 19, 1-(4-(pyridin-4-yloxy)phenyl)-4-(4-(1,3-thiazol-2-ylcarbonyl)piperazin-1-yl)pyrrolidin-2-one] | 91 | – |
| O=C(c1nccs1)N1CCN(C2CC(=O)N(c3ccc4ccn(-c5ccc(F)cc5)c4c3)C2)CC1 (stereo not drawn) [Example 20, 1-(1-(4-fluorophenyl)-1H-indol-6-yl)-4-(4-(1,3-thiazol-2-ylcarbonyl)piperazin-1-yl)pyrrolidin-2-one] | 93 | – |
| O=C(N1CCCC1)N1CCN(C2CC(=O)N(c3ccc(Oc4ccccc4)cc3)C2)CC1 (stereo not drawn) [Example 21, 1-(4-Phenoxyphenyl)-4-(4-(pyrrolidin-1-ylcarbonyl)piperazin-1-yl)pyrrolidin-2-one] | 69 | – |
| COc1ccc(Oc2ccc(N3CC(N4CCN(C(=O)c5nccs5)CC4)CC3=O)cc2)cc1 (stereo not drawn) [Example 22, 1-(4-(4-methoxyphenoxy)phenyl)-4-(4-(1,3-thiazol-2-ylcarbonyl)piperazin-1-yl)pyrrolidin-2-one] | 97 | – |
| O=C(c1nccs1)N1CCN(C2CC(=O)N(c3ccc4c(ccn4-c4ccc(F)cc4)c3)C2)CC1 (stereo not drawn) [Example 23, 1-(1-(4-Fluorophenyl)-1H-indol-5-yl)-4-(4-(1,3-thiazol-2-ylcarbonyl)piperazin-1-yl)pyrrolidin-2-one (optical isomer)] | – | Inhibition at 10 μM (%) ([1]; 10 µM): 99% |
| O=C(c1cocn1)N1CCN(C2CC(=O)N(c3ccc(Oc4ccccc4)cc3)C2)CC1 (stereo not drawn) [Example 36, 4-(4-(1,3-oxazol-4-ylcarbonyl)piperazin-1-yl)-1-(4-phenoxyphenyl)pyrrolidin-2-one] | 95 | – |
| O=C(c1nccs1)N1CCN(C2CC(=O)N(c3ccc(Cc4ccccc4)cc3)C2)CC1 (stereo not drawn) [Example 38, 1-(4-benzylphenyl)-4-(4-(1,3-thiazol-2-ylcarbonyl)piperazin-1-yl)pyrrolidin-2-one] | 99 | – |
| Cc1ncccc1-c1cc(F)cc(N2C[C@H](N3CCN(c4ncccn4)CC3)CC2=O)c1 [Example 426, (4R)-1-(3-Fluoro-5-(2-methylpyridin-3-yl)phenyl)-4-(4-(pyrimidin-2-yl)piperazin-1-yl)pyrrolidin-2-one] | – | inhibition at 10 µM [2]: 99% |
| O=C(c1cscn1)N1CCN([C@@H]2CC(=O)N(c3ccc4c(ccn4-c4cccc(Cl)c4)c3)C2)CC1 [Example 428, (4R)-1-(1-(3-chlorophenyl)-1H-indol-5-yl)-4-(4-(1,3-thiazol-4-ylcarbonyl)piperazin-1-yl)pyrrolidin-2-one] | – | inhibition at 10 µM [2]: 100% |
| O=C(c1cscn1)N1CCN([C@@H]2CC(=O)N(c3ccc4c(c3)CCN4c3ccc(F)cc3)C2)CC1 [Example 429, (4R)-1-(1-(4-fluorophenyl)-2,3-dihydro-1H-indol-5-yl)-4-(4-(1,3-thiazol-4-ylcarbonyl)piperazin-1-yl)pyrrolidin-2-one] | – | inhibition at 10 µM [2]: 100% |
| O=C1CC(N2CCN(c3ncccn3)CC2)CN1c1ccc2c(c1)CCN2c1ncc(C(F)(F)F)cn1 (stereo not drawn) [Example 430, 4-(4-(Pyrimidin-2-yl)piperazin-1-yl)-1-(1-(5-(trifluoromethyl)pyrimidin-2-yl)-2,3-dihydro-1H-indol-5-yl)pyrrolidin-2-one (optical isomer)] | – | % inhibition at 10 μM ([2]; 10 µM): 85% |
| O=C(c1cscn1)N1CCN([C@@H]2CC(=O)N(c3ccc4c(ccn4-c4ncc(C(F)(F)F)cn4)c3)C2)CC1 [Example 432, (4R)-4-(4-(1,3-Thiazol-4-ylcarbonyl)piperazin-1-yl)-1-(1-(5-(trifluoromethyl)pyrimidin-2-yl)-1H-indol-5-yl)pyrrolidin-2-one] | – | inhibition at 10 µM [2]: 100% |
| O=C1CC(N2CCN(c3ncccn3)CC2)CN1c1ccc2c(ccn2-c2ncc(C(F)(F)F)cn2)c1 (stereo not drawn) [Example 433, 4-(4-(Pyrimidin-2-yl)piperazin-1-yl)-1-(1-(5-(trifluoromethyl)pyrimidin-2-yl)-1H-indol-5-yl)pyrrolidin-2-one] | – | inhibition at 10 µM [2]: 83% |
| CC1C(N2CCN(C(=O)c3nccs3)CC2)CC(=O)N1c1ccc2c(ccn2-c2ncc(C(F)(F)F)cn2)c1 (stereo not drawn) [Example 434, 5-methyl-4-(4-(1,3-thiazol-2-ylcarbonyl)piperazin-1-yl)-1-(1-(5-(trifluoromethyl)pyrimidin-2-yl)-1H-indol-5-yl)pyrrolidin-2-one] | – | inhibition at 10 µM [2]: 100% |
